Experiment [1] relates to Total cellular protein extracts. The experiment is described as follows: Peptide affinity chromatography of total cellular protein extracts. To be noted: total cellular protein extracts loaded. It is filed as binding. The text has this:
Total cellular protein extracts were loaded onto columns of Sepharose beads, conjugated with either shared epitope-containing peptide 65–78*0404 [SEQ ID NO: 28] or the control peptide 65–78*0402 [SEQ ID NO: 8]. Bound proteins were eluted at low pH. […] 11 sequenced bands matched intracellular proteins, and only two sequences matched previously identified cell surface proteins: heat shock protein 60 (HSP60) and calreticulin. Both calreticulin and HSP60 are chaperones, with strong tendency to form hetero-complexes.

Experiment [2] concerns the target T1, purified recombinant calreticulin (Homo sapiens, UniProt P27797).
T1 sequence (P27797 18-417): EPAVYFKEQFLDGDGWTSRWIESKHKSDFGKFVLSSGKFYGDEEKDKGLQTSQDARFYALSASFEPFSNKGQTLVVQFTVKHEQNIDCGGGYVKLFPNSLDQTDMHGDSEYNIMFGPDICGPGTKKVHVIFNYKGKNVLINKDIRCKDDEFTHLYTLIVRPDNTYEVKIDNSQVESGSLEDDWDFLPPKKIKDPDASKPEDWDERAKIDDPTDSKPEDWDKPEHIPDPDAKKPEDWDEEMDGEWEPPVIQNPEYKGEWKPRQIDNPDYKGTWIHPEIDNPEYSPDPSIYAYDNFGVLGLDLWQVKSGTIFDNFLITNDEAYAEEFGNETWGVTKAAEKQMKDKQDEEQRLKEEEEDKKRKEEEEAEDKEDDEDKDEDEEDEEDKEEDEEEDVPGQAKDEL
The experiment is described as follows: Surface plasmon resonance, peptides immobilized on CM5 chip, calreticulin in flow phase. It counts as binding. To be noted: peptide immobilized on Biacore sensor chip CM5. The text has this:
To determine whether 65–78*0404 [SEQ ID NO: 28]-conjugated peptides bind these proteins directly, purified recombinant products were used. […] Shared epitope-containing peptides, 65–79*0401-[SEQ ID NO: 5] and 65–79*0404-[SEQ ID NO: 10], as well as a control peptide 65–79*0402-[SEQ ID NO: 7] were immobilized on different channels in a Biacore® sensor chip CM5 and purified recombinant calreticulin was applied in the flow phase.
In general terms: Surface plasmon resonance follows binding to a sensor surface in real time, without labels.

Experiment [3] deals with human fibroblastoid line M1 cells. To be noted: for Inhibition of cAMP-mediated (2CA-induced) DNA repair induction: M1 cells preincubated overnight with 50 μg/ml soluble peptide. The text has this: To further determine the signaling pathways involved in DNA repair induction, the inventors used the Trevigen CometAssay™ kit (Cat. No. 4250-50-K). The CometAssay is a single-cell gel electrophoresis method that can measure a variety of types of DNA damage, and repair of damage, in individual cells. The assay is based on the alkaline lysis of labile DNA at sites of damage. The unwound, relaxed DNA is able to migrate out of the cell during electrophoresis and can be visualized by SYBR Green staining.
(§1) To quantify DNA damage, cells were collected and three parallel samples were processed (a negative control, a DNA damage control (H2O2) and a sample subjected to H2O2 following exposure to various modulators of the cAMP signaling pathway). Cells are then washed in PBS. The washed cells are combined with molten low-melting agarose (Trevigen Cat. No. 4250-50-02) and transferred to a CometSlide™ (Trevigen Cat. No. 4250-100-03). The slides are immersed in lysis buffer for 30 min, on ice, in the dark. The slides are then treated with alkali buffer for 20 to 60 min at room temperature in the dark. The slides are then electrophoresed in buffer for 10 min at 20 volts, then fixed in methanol and ethanol. The slides are then stained with SYBR green (Trevigen Cat. No. 4250-50-05) solution and fluorescently imaged with a Diagnostic Instruments digitized camera, mounted on a Nikon Eclipse E400 microscope. Scion Image software is used to quantitate the comet tail intensity. Each data point is derived from tail fluorescent intensity determination in 50–100 individual cells. Data is presented as % DNA repair (the percent decrement in tail fluorescence intensity in agonist or antagonist-treated cells, relative to the intensity recorded in cells treated with H2O2 only)±SEM. (R.U.s)
(§2) To directly examine that possibility, cells were incubated overnight with synthetic peptides corresponding to the region contained within amino acids 65–79 and their ability to mount DNA repair activity in response to cAMP-elevating agents was determined. M1 cells were preincubated overnight with 50 μg/ml of synthetic peptides corresponding to the region surrounding the third allelic hypervariable region (aa 65–79) of each of the following DRβ chains: *0401 (65–79*0401) [SEQ ID NO: 5], *0402 (65–79*0402) [SEQ ID NO: 7], *0403 (65–79*0403) [SEQ ID NO: 9] or *0404(65–79*0404) [SEQ ID NO: 10]. At the end of the preincubation, cells were collected, washed and 2CA-induced DNA repair was determined as above. Table 3 (above) lists the different third allelic hypervariable region peptides used in the entire study disclosed here.
A modified method as described previously by Auger et al. [Nature Med 2:306–310 1996] was used. Briefly, cyanogen bromide activated Speharose 4B (1.5 ml) was washed with 1 mM HCl and incubated with peptides in 0.1 M NaHCO3 and 0.5 M NaCl (pH 8) buffer overnight at 4° C. For each peptide, 5 mg was used per milliliter of Sepharose. Free Sepharose groups were blocked with 0.2 M glycine (pH 8) for 2 hours at room temperature. Columns were washed at 4° C. with the following buffers: 0.1 M NaHCO3, 0.5 M NaCl (pH 8) buffer, then 0.5 M CH3COONa (pH 4) buffer and finally PBS at pH 7.5. M1 cells were plated at a density of 0.5×10^6 cells per well (6 well plate) in 10% FBS DMEM medium until 70–80% confluence. Prior to incubation with peptides, cultures were changed to serum-free DMEM medium, then evenly overlaid with 50 μg bead conjugated peptides, and incubated for the indicated period. Soluble peptides were added overnight to M1 cells at a concentration of 50 μg/ml.

In the next experiment the test system is mouse cells. The experiment is described as follows: cAMP-mediated DNA repair induction in mouse cells (data not shown). It counts as cell-based. As for the experimental part:
as §2

The next experiment relates to M1 cells. The experiment is described as follows: Intracellular cAMP level (enzyme immunoassay) in M1 cells after 2CA. It counts as cell-based, human. As to conditions: M1 cells preincubated 10 min with peptide-conjugated beads, 10 or 100 μM 2CA. On the procedure:
cAMP was determined by using an Amersham Pharmacia Biotech cAMP enzymeimmunoassay (EIA) system (code RPN 225). The reagents are prepared as described by the manufacturer (lysis reagents 1 and 2, the standard for the non-acetylation assay, the anti-cAMP antiserum, the cAMP peroxidase conjugate and wash buffer). […] Samples are added, followed by the antiserum solution. Following the recommended incubation, cAMP-peroxidase conjugate is added and incubated according to the recommended protocol. Each well is then aspirated and washed, and enzyme substrate is added and incubated. The results can then be read at 630 nm or at 450 nm (depending on the time of incubation and method of stopping the reaction), again according to the manufacturer's protocol.
A.) cAMP levels were assayed in M1 cells that were preincubated for 10 minutes with peptide-conjugated beads [Bead*0401, SEQ ID NO:6; Bead*0402, SEQ ID NO: 8], and intracellular cAMP level changes in response to stimulation with either 10 μM (FIG. 10A, top) or 100 μM (FIG. 10A, bottom) of 2CA were determined at different time points. cAMP levels were measured using a commercial enzyme immunoassay kit from Pharmacia. Results are expressed as fold increase of cAMP above baseline levels.

In a further experiment the test system is Protein kinase A (PKA). The experiment is described as follows: PKA activity in M1 cells after 2CA. It counts as cell-based, human. To be noted: M1 cells preincubated with peptide-conjugated beads, 10 μM 2CA. As for the experimental part:
Protein kinase A (PKA) was measured using the Life Technologies™ Protein Kinase A (cAMP-dependent Protein Kinase) Assay System (Cat. No. 13128-012). The basis of the assay system is the use of a heptapeptide substrate and a 17-amino acid inhibitor peptide (which is valuable for proving PKA-specific protein kinase activity). Four assay conditions per experimental condition are recommended by the manufacturer (+/− inhibitor and +/− cAMP) to determine total PKA-specific kinase activity and proportion of PKA activated in the cells or tissue of interest. Briefly, the four parallel assay conditions are set up for each of the four assay conditions for a given cell or tissue sample, according to the manufacturer's instructions. Substrate and [γ-^32P]ATP (3000–6000 Ci/mmol stock solution) are then added to each tube, and incubated according to the manufacturer's instructions. Following the incubation period, a sample from each tube is spotted onto a […] disc, which is the acid washed prior to scintillation counting (all according to the manufacturer's instructions). Activity can then be determined as described by the manufacturer of the kit.
B.) PKA activity was determined in M1 cells preincubated with peptide-conjugated beads [Bead*0401, SEQ ID NO: 6; Bead*0402, SEQ ID NO: 8], at different time points following treatment with 10 μM 2CA as above.

Experiment [4] has as its target T2, human A2A adenosine receptor (Homo sapiens, UniProt P29274).
T2 construct: expressed in transfected cells; provided by Joel Linden
The experiment is described as follows: Comet assay DNA repair in HEK293/A2a transfectants. To be noted: 20 min pretreatment, various doses. It is filed as cell-based. On the procedure:
as §1
(§3) Human embryonic kidney 293 cells (HEK 293) transfected with adenosine receptors were provided by Joel Linden. […]

Experiment [5] addresses T3, human A2B adenosine receptor (Homo sapiens, UniProt P29275).
T3 construct: expressed in transfected cells; provided by Joel Linden
T3 sequence (P29275 1-332): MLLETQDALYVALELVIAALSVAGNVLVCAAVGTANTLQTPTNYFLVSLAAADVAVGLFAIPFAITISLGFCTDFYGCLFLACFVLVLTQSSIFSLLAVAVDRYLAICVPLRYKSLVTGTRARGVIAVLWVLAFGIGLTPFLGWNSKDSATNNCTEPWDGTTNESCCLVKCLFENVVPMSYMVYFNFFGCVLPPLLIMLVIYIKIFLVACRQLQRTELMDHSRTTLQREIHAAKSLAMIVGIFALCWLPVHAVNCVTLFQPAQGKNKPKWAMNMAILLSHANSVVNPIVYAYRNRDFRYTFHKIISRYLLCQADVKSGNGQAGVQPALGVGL
The experiment is described as follows: Comet assay DNA repair in HEK293/A2b transfectants. It is filed as cell-based. To be noted: 20 min pretreatment, various doses. As for the experimental part:
as §1, §3

No end group written: not given here.

T2 sequence (P29274 whole entry): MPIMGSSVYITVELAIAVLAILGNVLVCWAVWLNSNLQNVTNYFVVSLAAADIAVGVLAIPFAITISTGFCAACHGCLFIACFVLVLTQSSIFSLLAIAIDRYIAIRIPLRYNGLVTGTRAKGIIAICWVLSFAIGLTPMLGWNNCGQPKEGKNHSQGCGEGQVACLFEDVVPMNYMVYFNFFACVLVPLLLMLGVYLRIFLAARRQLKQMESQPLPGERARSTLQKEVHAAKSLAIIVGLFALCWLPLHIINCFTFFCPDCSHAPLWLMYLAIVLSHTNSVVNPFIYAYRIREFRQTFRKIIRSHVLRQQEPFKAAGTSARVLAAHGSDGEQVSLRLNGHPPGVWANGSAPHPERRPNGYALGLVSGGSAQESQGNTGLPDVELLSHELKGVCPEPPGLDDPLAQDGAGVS

For the compound “KDILEDERAAVDTYC [65–79*0402, control peptide, amino acids 65–79 of the β chain encoded by the HLA-DRB*0402 allele]”, in experiment [1], the “Protein binding: distinct bands in low pH eluates of peptide-conjugated Sepharose column” value is given as “no protein binding was detected”.
Turning to “KDLLEQRRAAVDTYC [65–79*0404, synthetic peptide corresponding to amino acids 65–79 of the β chain encoded by the HLA-DRB*0404 allele]”, in experiment [2], the “Calreticulin binding compared to control peptide 65–79*0402” value is “markedly higher calreticulin binding”. The “Inhibition of cAMP-mediated (2CA-induced) DNA repair induction” value in experiment [3] is given as “inhibited cAMP-mediated DNA repair induction”. In addition, the “Inhibition of cAMP-mediated DNA repair induction” value in the experiment with mouse cells was “inhibited cAMP-mediated DNA repair induction”.
As to “KDLLEQKRAAVDTYC [65–79*0401, synthetic peptide corresponding to amino acids 65–79 of the β chain encoded by the HLA-DRB*0401 allele]”, in experiment [2], the “Calreticulin binding compared to control peptide 65–79*0402” value is reported as “markedly higher calreticulin binding”. Further, in experiment [3], the “Inhibition of cAMP-mediated (2CA-induced) DNA repair induction” value was “inhibited cAMP-mediated DNA repair induction”. In the experiment with mouse cells, the “Inhibition of cAMP-mediated DNA repair induction” value is on record as “inhibited cAMP-mediated DNA repair induction”.
Consider “Bead*0401: Sepharose beads chemically conjugated to 14-mer peptide, residues 65–78 of DRβ*0401 chain [SEQ ID NO: 6] (KDLLEQKRAAVDTY; also: conjugated to Sepharose beads)”, for which the “cAMP level response to 2CA” value in the experiment with M1 cells was “failed to increase cAMP levels”. The “PKA activation following 2CA” value with Protein kinase A (PKA) is “failed to increase cAMP levels or activate PKA”. The “Block of cAMP-mediated (2CA-induced) DNA repair by Sepharose bead-conjugated peptide” value in experiment [3] (M1 cells preincubated for various times with peptide-conjugated beads) was “blocked cAMP-mediated DNA repair”.
Regarding `Nc1nc(Cl)nc2c1ncn2[C@@H]1O[C@H](CO)[C@@H](O)[C@H]1O` [2CA, 2-chloroadenosine], the “2CA-induced DNA repair signal transduced” value in experiment [4] and in experiment [5] was “transduced the signal” in each case. Besides, in experiment [3] (M1 cells stimulated 20 min with various concentrations before 100 μM H2O2), the DNA repair triggered entry is recorded as “triggered in all cases DNA repair”.

The record behind these values is patent US7208154B2, “Methods and compositions for the treatment of MHC-associated conditions” (Regents of the University of Michigan, priority 2002, dated 2007).
